Structures are written as SMILES.

Common to all, as to experiment: biochemical
Experiment [1] deals with T1, panel of 374 wild-type kinases (Homo sapiens, UniProt Q9Y4K4).
T1 construct: purchased Reaction Biology Corporation
The following applies: read-out: % Enzyme Activity (relative to DMSO controls), KHS/MAP4K5.

Experiment [2] addresses T2, panel of 374 wild-type kinases (Homo sapiens, UniProt Q86UE8).
T2 construct: purchased Reaction Biology Corporation
The following applies: read-out: % Enzyme Activity (relative to DMSO controls), kinase TLK2.

Experiment [3] has as its target T3, panel of 374 wild-type kinases (Homo sapiens, UniProt P17252).
T3 construct: purchased Reaction Biology Corporation
The following applies: read-out: % Enzyme Activity (relative to DMSO controls), kinase PKCa.

Experiment [4] has as its target T4, panel of 374 wild-type kinases (Homo sapiens, UniProt Q6XUX3).
T4 construct: purchased Reaction Biology Corporation
T4 sequence (Q6XUX3 1-929): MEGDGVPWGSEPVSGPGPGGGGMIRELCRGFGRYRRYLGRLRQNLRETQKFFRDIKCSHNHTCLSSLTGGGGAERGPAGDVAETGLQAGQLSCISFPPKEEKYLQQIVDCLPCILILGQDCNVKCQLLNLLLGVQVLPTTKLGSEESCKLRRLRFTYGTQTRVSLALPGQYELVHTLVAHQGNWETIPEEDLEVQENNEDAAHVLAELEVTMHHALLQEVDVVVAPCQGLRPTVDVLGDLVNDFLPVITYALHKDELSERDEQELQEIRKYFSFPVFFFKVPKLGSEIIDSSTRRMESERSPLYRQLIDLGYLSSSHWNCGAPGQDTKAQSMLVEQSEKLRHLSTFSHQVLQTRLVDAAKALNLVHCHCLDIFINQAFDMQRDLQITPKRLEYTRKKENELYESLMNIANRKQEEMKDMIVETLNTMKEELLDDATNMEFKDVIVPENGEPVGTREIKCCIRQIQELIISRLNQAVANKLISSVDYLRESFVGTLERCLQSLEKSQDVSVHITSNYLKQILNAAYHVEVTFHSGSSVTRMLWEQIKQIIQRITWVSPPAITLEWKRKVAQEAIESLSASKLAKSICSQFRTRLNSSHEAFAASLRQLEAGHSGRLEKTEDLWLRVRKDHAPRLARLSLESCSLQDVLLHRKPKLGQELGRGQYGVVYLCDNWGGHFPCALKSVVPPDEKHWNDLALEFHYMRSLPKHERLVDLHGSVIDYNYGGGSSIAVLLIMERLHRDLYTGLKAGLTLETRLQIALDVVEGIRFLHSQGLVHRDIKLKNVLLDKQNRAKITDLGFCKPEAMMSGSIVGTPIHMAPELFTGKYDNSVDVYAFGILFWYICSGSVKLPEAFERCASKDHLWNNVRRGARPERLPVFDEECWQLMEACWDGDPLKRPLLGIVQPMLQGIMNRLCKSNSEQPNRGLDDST
The following applies: read-out: % Enzyme Activity (relative to DMSO controls), kinase RIPK5.

In experiment [5] the target is T5, panel of 374 wild-type kinases (Homo sapiens, UniProt Q9Y2U5).
T5 construct: purchased Reaction Biology Corporation
T5 sequence (Q9Y2U5 1-619): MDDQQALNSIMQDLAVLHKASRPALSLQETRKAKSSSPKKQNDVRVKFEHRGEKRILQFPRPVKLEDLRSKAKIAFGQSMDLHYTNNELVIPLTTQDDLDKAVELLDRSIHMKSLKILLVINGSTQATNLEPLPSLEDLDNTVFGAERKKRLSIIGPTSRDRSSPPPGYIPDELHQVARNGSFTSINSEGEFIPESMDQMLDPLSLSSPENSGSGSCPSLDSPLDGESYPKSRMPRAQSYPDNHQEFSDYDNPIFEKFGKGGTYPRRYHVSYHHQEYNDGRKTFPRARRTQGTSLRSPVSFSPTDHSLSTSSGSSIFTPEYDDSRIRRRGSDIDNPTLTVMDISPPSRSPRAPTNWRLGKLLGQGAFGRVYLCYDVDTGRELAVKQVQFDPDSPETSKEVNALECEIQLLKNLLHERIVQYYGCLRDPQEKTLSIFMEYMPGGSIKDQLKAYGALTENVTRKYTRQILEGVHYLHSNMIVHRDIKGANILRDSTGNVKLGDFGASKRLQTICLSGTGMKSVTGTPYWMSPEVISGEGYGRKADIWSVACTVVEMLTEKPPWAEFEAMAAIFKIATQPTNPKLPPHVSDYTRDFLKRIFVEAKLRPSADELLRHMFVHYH
The following applies: read-out: % Enzyme Activity (relative to DMSO controls), MEKK2.

The target of experiment [6] is T6, panel of 374 wild-type kinases (Homo sapiens, UniProt P49761).
T6 construct: purchased Reaction Biology Corporation
T6 sequence (P49761 whole entry): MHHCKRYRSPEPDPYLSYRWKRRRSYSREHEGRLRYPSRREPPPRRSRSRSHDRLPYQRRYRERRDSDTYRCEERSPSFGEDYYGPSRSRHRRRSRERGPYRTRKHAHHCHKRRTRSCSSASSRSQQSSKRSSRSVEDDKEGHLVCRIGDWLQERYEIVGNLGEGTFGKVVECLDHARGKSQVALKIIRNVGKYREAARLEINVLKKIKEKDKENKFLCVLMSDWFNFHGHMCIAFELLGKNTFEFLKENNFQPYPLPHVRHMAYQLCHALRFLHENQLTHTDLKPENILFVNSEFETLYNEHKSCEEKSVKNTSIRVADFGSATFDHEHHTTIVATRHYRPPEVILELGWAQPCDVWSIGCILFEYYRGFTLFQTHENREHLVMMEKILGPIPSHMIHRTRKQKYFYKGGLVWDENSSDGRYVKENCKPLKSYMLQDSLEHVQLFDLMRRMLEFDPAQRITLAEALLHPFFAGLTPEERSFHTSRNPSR
The following applies: read-out: % Enzyme Activity (relative to DMSO controls), CLK3.

For experiment [7], the target named is T7, panel of 374 wild-type kinases (Homo sapiens, UniProt Q8NEV4).
T7 construct: purchased Reaction Biology Corporation
T7 sequence (Q8NEV4 whole entry): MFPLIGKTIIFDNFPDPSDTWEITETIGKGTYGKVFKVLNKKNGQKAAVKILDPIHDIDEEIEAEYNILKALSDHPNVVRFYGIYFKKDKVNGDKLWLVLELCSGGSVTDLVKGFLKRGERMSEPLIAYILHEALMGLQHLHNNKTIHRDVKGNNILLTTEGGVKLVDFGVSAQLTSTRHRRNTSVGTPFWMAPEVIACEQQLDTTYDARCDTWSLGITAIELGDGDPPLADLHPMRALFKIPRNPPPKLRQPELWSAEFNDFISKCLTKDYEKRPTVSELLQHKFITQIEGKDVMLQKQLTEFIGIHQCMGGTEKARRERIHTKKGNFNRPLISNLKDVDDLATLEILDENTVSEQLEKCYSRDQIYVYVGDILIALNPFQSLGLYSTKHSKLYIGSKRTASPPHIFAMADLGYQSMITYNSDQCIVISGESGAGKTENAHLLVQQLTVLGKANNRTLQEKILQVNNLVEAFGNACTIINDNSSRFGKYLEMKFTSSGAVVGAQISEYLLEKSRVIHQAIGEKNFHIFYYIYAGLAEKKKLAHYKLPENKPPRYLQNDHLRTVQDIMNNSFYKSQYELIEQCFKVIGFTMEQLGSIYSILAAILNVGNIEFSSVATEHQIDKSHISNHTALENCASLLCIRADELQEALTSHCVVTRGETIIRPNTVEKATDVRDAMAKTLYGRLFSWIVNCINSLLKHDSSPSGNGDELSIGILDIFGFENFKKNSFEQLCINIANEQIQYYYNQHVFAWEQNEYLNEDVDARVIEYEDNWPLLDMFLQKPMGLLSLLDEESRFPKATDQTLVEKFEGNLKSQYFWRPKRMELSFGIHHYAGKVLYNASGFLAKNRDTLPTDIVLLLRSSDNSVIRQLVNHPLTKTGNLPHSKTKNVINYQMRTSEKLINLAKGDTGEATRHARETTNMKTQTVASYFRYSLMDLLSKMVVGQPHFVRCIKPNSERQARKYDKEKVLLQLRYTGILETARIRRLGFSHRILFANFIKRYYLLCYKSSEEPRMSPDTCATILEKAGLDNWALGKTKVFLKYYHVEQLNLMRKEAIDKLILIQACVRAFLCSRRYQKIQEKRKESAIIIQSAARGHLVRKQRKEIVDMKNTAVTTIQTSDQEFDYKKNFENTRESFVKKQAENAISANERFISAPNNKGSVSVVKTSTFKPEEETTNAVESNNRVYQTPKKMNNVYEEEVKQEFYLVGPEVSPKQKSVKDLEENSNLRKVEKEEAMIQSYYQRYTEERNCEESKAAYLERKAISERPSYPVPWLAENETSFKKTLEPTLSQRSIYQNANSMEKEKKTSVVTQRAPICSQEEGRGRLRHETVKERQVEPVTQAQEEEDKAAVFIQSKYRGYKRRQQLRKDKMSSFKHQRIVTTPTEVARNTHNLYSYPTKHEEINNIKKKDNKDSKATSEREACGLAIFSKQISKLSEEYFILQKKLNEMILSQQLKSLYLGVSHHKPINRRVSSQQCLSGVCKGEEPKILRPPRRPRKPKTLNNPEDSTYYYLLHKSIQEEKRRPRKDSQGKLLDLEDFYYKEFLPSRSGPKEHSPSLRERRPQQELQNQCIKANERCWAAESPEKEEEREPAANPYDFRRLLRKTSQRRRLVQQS
The following applies: MYO3A, read-out: % Enzyme Activity (relative to DMSO controls).

Experiment [8] has as its target T8, panel of 374 wild-type kinases (Homo sapiens, UniProt Q96KB5).
T8 construct: purchased Reaction Biology Corporation
T8 sequence (Q96KB5 1-322): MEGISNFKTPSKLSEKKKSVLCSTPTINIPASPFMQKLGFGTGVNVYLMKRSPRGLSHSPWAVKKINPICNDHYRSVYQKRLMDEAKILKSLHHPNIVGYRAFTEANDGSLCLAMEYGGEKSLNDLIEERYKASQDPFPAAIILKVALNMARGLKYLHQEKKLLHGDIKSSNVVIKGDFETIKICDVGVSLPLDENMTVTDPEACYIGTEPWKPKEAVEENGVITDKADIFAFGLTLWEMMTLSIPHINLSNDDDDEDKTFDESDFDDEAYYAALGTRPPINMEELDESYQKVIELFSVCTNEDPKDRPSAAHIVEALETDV
The following applies: read-out: % Enzyme Activity (relative to DMSO controls), kinase PBK/TOPK.

The target of experiment [9] is T9, panel of 374 wild-type kinases (Homo sapiens, UniProt P23443).
T9 construct: purchased Reaction Biology Corporation
T9 sequence (P23443 whole entry): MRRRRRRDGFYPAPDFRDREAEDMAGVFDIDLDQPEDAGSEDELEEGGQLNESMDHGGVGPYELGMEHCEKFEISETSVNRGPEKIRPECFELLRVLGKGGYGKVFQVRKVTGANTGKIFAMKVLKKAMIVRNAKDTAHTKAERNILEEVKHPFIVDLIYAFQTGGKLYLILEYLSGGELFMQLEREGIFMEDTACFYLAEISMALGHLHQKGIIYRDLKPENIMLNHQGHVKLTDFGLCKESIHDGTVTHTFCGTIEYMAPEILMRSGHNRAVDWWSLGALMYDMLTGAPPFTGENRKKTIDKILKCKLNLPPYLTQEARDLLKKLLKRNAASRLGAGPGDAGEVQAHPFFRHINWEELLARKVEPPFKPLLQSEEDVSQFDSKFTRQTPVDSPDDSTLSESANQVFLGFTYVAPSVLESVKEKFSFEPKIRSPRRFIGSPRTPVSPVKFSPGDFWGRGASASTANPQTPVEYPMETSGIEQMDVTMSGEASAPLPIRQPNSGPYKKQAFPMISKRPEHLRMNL
The following applies: read-out: % Enzyme Activity (relative to DMSO controls), kinase p70S6K/RPS6KB1.

For experiment [10], the target named is T10, panel of 374 wild-type kinases (Homo sapiens, UniProt Q05397).
T10 construct: purchased Reaction Biology Corporation
The following applies: read-out: % Enzyme Activity (relative to DMSO controls), FAK/PTK2.

For experiment [11], the target named is T11, panel of 374 wild-type kinases (Homo sapiens, UniProt Q9UQM7).
T11 construct: purchased Reaction Biology Corporation
The following applies: read-out: % Enzyme Activity (relative to DMSO controls), CAMK2a.

T2 sequence (Q86UE8 whole entry): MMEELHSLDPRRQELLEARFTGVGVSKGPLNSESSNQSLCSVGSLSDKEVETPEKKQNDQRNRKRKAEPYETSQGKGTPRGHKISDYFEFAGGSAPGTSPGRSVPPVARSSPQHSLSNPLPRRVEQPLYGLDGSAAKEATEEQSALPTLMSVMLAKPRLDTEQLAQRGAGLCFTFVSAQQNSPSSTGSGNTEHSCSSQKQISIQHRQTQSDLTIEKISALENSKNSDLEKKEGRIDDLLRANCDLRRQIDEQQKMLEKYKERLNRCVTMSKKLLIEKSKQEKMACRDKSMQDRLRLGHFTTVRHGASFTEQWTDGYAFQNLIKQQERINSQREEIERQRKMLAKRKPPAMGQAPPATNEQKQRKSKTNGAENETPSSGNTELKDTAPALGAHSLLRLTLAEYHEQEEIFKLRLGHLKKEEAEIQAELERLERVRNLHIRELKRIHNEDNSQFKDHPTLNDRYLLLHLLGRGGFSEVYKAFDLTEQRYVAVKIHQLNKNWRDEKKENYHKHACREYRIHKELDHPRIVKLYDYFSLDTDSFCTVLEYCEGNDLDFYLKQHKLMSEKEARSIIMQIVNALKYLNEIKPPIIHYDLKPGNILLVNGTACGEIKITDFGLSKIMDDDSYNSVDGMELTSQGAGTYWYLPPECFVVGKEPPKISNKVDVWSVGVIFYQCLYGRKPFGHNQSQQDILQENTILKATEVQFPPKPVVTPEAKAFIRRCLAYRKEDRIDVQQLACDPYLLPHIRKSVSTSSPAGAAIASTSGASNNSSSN
T1 sequence (Q9Y4K4 whole entry): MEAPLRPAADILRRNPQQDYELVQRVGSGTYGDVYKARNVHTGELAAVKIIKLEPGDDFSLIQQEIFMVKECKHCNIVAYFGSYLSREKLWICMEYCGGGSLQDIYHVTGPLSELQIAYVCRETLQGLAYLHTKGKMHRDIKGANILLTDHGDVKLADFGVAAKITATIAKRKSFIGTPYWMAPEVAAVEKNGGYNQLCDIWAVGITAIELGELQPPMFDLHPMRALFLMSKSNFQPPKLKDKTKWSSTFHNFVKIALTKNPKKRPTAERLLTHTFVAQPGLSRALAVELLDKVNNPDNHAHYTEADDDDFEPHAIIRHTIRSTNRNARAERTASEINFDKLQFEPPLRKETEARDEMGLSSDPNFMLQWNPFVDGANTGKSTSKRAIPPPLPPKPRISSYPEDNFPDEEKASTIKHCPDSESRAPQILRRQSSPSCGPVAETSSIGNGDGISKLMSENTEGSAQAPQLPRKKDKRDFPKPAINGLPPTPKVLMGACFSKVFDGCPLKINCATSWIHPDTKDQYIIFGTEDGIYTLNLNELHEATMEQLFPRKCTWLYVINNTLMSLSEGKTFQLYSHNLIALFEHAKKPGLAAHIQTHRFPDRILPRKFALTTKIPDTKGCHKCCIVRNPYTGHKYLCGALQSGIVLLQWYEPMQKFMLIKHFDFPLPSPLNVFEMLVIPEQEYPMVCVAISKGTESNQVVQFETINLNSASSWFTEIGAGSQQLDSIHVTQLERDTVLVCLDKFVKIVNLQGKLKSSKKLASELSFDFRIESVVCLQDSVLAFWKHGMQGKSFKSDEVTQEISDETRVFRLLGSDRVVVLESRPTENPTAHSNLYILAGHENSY

Consider `O=C(Nc1cnn(-c2csc(C(=O)NC3COC3)c2)c1)Nc1ccccc1Cl` [Compound 17, 4-(4-(3-(2-chlorophenyl)ureido)-1H-pyrazol-1-yl)-N-(oxetan-3-yl)thiophene-2-carboxamide], for which the remaining activity at 5 µM worked out at 99.1% in experiment [1]; 99.1% in experiment [2]; 101% in experiment [3]; 102% in experiment [4]; 110% in experiment [5]; 120% in experiment [6]. Also, the remaining activity at 5 µM in experiment [7] was 94.5%; in [8], 115%; in [9], 92.1%; in experiment [10], 95.7%; in [11], 100%.

As to `O=C(Nc1cnn(-c2csc(C(=O)NC3COC3)c2)c1)Nc1c(F)cccc1Cl` [Compound 25, 4-(4-(3-(2-chloro-6-fluorophenyl)ureido)-1H-pyrazol-1-yl)-N-(oxetan-3-yl)thiophene-2-carboxamide], the remaining activity at 5 µM came to 103% in [1]; 109% in experiment [2]; 90.7% in experiment [3]; 95.5% in experiment [4]; 80.1% in [5]; 93.5% in experiment [6]. In addition, the remaining activity at 5 µM came to 82.8% in [7]; 98.2% in experiment [8]; 97.7% in experiment [9]; 89% in experiment [10]; 99.4% in experiment [11].

Turning to `Cc1sc(C(=O)NC2COC2)cc1-n1cc(NC(=O)Nc2c(F)cccc2Cl)cn1` [Compound 27, 4-(4-(3-(2-chloro-6-fluorophenyl)ureido)-1H-pyrazol-1-yl)-5-methyl-N-(oxetan-3-yl)thiophene-2-carboxamide], the remaining activity at 10 µM in experiment [1] (10 uM) turned out to be 98.4%; in experiment [2] (10 uM), 97.2%; in experiment [3] (10 uM), 95.9%; in experiment [4] (10 uM), 96.6%; in [5] (10 uM), 88.1%; in experiment [6] (10 uM) it was 99.6%. Besides, the remaining activity at 10 µM turned out to be 91.1% in experiment [7] (10 uM); 88.5% in experiment [8] (10 uM); 92.1% in [9] (10 uM); 104% in [10] (10 uM); 99.7% in [11] (10 uM).

These data come from patent publication US20240246942A1, “KINASE INHIBITORS FOR THE TREATMENT OF NEURODEGENERATIVE DISEASES” (priority 2020, published 2024).
